Experimental data from ChEMBL document CHEMBL4507256 (2021).

Tests used:
[1] = target: Ribosomal protein S6 kinase alpha-4 (Homo sapiens) (UniProt O75676); details: Compound concentration 1000.0 nM
[2] = target: Serine/threonine-protein kinase SIK2 (Homo sapiens) (UniProt Q9H0K1); details: Compound concentration 1000.0 nM
[3] = target: Receptor tyrosine-protein kinase erbB-4 (Homo sapiens) (UniProt Q15303); details: Compound concentration 1000.0 nM
[4] = test system: Phosphatidylinositol 4,5-bisphosphate 3-kinase catalytic subunit alpha isoform (Homo sapiens), P42336 [M1043I]; details: Compound concentration 1000.0 nM
[5] = target: Phosphatidylinositol 4-phosphate 5-kinase type-1 gamma (Homo sapiens) (UniProt O60331); details: Compound concentration 1000.0 nM
[6] = target: Casein kinase I isoform alpha (Homo sapiens) (UniProt P48729); details: Compound concentration 1000.0 nM
[7] = target: Mitogen-activated protein kinase kinase kinase 11 (Homo sapiens) (UniProt Q16584); details: Compound concentration 1000.0 nM
Chain of Mitogen-activated protein kinase kinase kinase 11 (Homo sapiens) (Q16584 whole entry, looked up): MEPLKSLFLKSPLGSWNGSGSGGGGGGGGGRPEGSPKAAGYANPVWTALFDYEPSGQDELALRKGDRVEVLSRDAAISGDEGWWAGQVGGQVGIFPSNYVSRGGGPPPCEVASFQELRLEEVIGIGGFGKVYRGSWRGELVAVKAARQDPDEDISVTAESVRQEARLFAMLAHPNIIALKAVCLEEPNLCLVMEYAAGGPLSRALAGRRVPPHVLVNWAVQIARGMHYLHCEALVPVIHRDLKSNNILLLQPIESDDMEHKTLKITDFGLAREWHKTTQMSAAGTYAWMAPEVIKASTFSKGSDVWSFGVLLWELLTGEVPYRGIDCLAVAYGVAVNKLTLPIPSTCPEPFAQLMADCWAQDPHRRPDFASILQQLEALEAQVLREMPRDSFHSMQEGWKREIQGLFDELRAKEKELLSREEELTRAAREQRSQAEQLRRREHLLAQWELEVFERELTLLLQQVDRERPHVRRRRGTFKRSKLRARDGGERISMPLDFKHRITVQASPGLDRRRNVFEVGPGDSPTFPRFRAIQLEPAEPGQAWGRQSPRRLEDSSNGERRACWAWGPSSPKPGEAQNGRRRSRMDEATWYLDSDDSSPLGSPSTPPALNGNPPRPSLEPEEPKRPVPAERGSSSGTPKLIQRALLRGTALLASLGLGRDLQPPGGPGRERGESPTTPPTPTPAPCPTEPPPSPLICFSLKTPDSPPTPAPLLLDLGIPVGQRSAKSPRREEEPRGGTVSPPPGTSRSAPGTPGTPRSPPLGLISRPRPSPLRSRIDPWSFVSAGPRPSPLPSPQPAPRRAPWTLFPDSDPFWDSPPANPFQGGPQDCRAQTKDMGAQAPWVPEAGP

[8] = target: Phosphatidylinositol 5-phosphate 4-kinase type-2 beta (Homo sapiens) (UniProt P78356); details: Compound concentration 1000.0 nM
[9] = target: Mitogen-activated protein kinase 13 (Homo sapiens) (UniProt O15264); details: Compound concentration 1000.0 nM
[10] = target: MAP kinase-activated protein kinase 2 (Homo sapiens) (UniProt P49137); details: Compound concentration 1000.0 nM
[11] = target: Beta-3 adrenergic receptor (Homo sapiens) (UniProt P13945); details: Compound concentration 10.0 uM
Chain of Beta-3 adrenergic receptor (Homo sapiens) (P13945 whole entry, looked up): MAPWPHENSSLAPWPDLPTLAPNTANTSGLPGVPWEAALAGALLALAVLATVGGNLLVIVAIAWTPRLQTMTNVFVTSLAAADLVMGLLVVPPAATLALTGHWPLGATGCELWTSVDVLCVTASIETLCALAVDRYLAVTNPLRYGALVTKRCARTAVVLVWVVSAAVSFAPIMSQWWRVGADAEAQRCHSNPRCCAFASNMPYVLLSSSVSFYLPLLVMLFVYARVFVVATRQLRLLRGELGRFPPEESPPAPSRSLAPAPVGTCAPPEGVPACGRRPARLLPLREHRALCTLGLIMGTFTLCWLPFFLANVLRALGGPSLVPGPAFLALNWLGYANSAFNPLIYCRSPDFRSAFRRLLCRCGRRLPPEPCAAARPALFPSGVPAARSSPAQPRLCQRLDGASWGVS

[12] = target: Mitogen-activated protein kinase kinase kinase 6 (Homo sapiens) (UniProt O95382); details: Compound concentration 1000.0 nM
[13] = target: Calcium/calmodulin-dependent protein kinase type 1D (Homo sapiens) (UniProt Q8IU85); details: Compound concentration 1000.0 nM
[14] = target: Ribosomal protein S6 kinase alpha-3 (Homo sapiens) (UniProt P51812); details: Compound concentration 1000.0 nM
[15] = target: Mitogen-activated protein kinase kinase kinase 4 (Homo sapiens) (UniProt Q9Y6R4); details: Compound concentration 1000.0 nM
[16] = target: Serine/threonine-protein kinase DCLK1 (Homo sapiens) (UniProt O15075); details: Compound concentration 1000.0 nM
[17] = target: Calcium/calmodulin-dependent protein kinase type 1G (Homo sapiens) (UniProt Q96NX5); details: Compound concentration 1000.0 nM
[18] = target: Serine/threonine-protein kinase tousled-like 1 (Homo sapiens) (UniProt Q9UKI8); details: Compound concentration 1000.0 nM
[19] = target: Dual specificity mitogen-activated protein kinase kinase 3 (Homo sapiens) (UniProt P46734); details: Compound concentration 1000.0 nM
[20] = target: Cytoplasmic tyrosine-protein kinase BMX (Homo sapiens) (UniProt P51813); details: Compound concentration 1000.0 nM
[21] = test system: Mast/stem cell growth factor receptor Kit (Homo sapiens), P10721 [V559D]; details: Compound concentration 1000.0 nM
[22] = test system: eIF-2-alpha kinase GCN2 (Homo sapiens), Q9P2K8 [S808G]; details: Compound concentration 1000.0 nM
Chain of eIF-2-alpha kinase GCN2 (Homo sapiens), Q9P2K8 [S808G] (Q9P2K8 whole entry S808G): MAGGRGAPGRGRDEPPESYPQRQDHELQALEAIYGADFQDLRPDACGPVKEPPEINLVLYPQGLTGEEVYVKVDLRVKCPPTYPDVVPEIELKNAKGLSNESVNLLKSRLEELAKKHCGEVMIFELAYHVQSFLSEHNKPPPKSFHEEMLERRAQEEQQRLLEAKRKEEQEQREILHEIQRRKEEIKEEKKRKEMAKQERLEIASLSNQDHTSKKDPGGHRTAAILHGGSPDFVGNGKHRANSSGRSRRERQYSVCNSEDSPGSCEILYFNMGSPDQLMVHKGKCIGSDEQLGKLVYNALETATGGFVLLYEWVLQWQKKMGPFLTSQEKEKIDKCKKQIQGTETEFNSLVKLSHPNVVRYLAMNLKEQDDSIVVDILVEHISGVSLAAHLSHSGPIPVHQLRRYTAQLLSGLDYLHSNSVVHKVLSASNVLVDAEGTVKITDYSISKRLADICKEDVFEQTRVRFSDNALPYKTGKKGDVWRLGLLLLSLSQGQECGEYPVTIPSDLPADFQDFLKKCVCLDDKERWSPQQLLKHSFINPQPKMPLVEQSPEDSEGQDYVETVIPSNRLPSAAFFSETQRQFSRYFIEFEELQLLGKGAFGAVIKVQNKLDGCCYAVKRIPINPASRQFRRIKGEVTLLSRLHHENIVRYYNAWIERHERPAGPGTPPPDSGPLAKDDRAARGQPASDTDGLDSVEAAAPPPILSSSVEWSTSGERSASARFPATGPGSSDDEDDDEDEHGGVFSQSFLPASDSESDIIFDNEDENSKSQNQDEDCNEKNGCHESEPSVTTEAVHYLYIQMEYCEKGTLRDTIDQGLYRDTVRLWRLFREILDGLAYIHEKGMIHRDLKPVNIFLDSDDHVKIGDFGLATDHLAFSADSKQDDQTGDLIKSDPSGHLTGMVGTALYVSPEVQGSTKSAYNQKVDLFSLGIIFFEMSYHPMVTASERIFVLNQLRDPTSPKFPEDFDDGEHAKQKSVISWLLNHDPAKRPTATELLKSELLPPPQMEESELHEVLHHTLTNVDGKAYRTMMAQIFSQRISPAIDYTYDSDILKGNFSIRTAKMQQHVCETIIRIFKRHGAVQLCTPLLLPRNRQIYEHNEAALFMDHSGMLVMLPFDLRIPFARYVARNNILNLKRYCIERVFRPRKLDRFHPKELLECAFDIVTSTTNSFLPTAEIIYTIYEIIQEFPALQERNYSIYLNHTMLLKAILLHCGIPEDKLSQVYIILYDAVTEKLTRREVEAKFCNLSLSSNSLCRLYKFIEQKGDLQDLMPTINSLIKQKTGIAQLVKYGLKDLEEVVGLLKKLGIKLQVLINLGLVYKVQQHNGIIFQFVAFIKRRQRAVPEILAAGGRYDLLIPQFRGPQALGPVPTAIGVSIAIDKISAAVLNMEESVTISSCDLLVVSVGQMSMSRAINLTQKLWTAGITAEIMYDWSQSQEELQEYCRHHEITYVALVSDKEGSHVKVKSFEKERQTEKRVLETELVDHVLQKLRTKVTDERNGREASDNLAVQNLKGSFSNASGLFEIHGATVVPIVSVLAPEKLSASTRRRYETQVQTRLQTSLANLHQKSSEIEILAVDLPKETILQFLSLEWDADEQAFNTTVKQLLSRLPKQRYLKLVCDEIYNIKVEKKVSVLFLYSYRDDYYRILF

[23] = target: Myosin light chain kinase family member 4 (Homo sapiens) (UniProt Q86YV6); details: Compound concentration 1000.0 nM
Chain of Myosin light chain kinase family member 4 (Homo sapiens) (Q86YV6 whole entry): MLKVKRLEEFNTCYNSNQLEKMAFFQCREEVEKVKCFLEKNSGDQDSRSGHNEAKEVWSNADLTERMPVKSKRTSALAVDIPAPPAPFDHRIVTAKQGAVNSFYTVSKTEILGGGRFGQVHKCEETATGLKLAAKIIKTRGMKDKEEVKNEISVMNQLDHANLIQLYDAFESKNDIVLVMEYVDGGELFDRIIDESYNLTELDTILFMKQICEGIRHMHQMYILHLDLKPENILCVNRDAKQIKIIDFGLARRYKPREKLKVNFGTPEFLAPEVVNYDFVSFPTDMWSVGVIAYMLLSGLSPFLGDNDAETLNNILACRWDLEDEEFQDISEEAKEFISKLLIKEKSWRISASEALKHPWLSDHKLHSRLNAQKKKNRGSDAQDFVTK

[24] = test system: Tyrosine-protein kinase ABL1 (Homo sapiens), P00519 [Q252H]; details: Compound concentration 1000.0 nM
[25] = test system: Epidermal growth factor receptor (Homo sapiens), P00533 [UNDEFINED MUTATION]; details: Compound concentration 1000.0 nM
[26] = target: Serine/threonine-protein kinase/endoribonuclease IRE1 (Homo sapiens) (UniProt O75460); details: Compound concentration 1000.0 nM
[27] = target: Serine/threonine-protein kinase SIK3 (Homo sapiens) (UniProt Q9Y2K2); details: Compound concentration 1000.0 nM
[28] = target: Mitogen-activated protein kinase kinase kinase kinase 2 (Homo sapiens) (UniProt Q12851); details: Compound concentration 1000.0 nM
[29] = target: Ephrin type-A receptor 8 (Homo sapiens) (UniProt P29322); details: Compound concentration 1000.0 nM
[30] = test system: Epidermal growth factor receptor (Homo sapiens), P00533 [L861Q]; details: Compound concentration 1000.0 nM
[31] = test system: Tyrosine-protein kinase ABL1 (Homo sapiens), P00519 [E255K]; details: Compound concentration 1000.0 nM
[32] = target: Tyrosine-protein kinase Fgr (Homo sapiens) (UniProt P09769); details: Compound concentration 1000.0 nM
[33] = target: Tyrosine-protein kinase TXK (Homo sapiens) (UniProt P42681); details: Compound concentration 1000.0 nM
Chain of Tyrosine-protein kinase TXK (Homo sapiens) (P42681 whole entry): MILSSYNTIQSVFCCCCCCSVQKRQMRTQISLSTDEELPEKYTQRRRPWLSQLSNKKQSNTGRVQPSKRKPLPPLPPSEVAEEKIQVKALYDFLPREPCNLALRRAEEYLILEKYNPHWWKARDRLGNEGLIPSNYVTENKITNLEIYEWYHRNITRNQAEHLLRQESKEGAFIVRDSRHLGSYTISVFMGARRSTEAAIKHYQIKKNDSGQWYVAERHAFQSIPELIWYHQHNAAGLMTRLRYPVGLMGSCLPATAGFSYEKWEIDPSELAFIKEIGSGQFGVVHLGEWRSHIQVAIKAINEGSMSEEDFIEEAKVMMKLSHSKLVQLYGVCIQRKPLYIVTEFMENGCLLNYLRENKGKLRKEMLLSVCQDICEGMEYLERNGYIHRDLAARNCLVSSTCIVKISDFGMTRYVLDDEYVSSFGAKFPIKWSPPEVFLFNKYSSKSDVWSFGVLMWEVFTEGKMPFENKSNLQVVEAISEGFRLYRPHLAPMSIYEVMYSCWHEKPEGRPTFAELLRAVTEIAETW

[34] = target: Cyclin-dependent kinase 4 (Homo sapiens) (UniProt P11802); details: Compound concentration 1000.0 nM
[35] = target: Dual specificity tyrosine-phosphorylation-regulated kinase 1A (Homo sapiens) (UniProt Q13627); details: Compound concentration 1000.0 nM
[36] = target: Death-associated protein kinase 2 (Homo sapiens) (UniProt Q9UIK4); details: Compound concentration 1000.0 nM
Chain of Death-associated protein kinase 2 (Homo sapiens) (Q9UIK4 whole entry, looked up): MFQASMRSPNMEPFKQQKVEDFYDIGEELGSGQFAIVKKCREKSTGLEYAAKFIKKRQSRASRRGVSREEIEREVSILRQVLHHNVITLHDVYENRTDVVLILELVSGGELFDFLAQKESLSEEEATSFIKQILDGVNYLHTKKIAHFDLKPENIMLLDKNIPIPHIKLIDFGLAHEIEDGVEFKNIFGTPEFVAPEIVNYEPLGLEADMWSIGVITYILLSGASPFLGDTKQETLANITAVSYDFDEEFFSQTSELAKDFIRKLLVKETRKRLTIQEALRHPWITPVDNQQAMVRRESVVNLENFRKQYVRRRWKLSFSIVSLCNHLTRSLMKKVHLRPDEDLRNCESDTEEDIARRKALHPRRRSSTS

[37] = target: Cyclin-dependent kinase 11B (Homo sapiens) (UniProt P21127); details: Compound concentration 1000.0 nM
[38] = target: Phosphatidylinositol 4,5-bisphosphate 3-kinase catalytic subunit gamma isoform (Homo sapiens) (UniProt P48736); details: Compound concentration 1000.0 nM
[39] = target: Serine/threonine-protein kinase RIO1 (Homo sapiens) (UniProt Q9BRS2); details: Compound concentration 1000.0 nM
[40] = target: Cyclin-dependent kinase 3 (Homo sapiens) (UniProt Q00526); details: Compound concentration 1000.0 nM
Chain of Cyclin-dependent kinase 3 (Homo sapiens) (Q00526 whole entry, looked up): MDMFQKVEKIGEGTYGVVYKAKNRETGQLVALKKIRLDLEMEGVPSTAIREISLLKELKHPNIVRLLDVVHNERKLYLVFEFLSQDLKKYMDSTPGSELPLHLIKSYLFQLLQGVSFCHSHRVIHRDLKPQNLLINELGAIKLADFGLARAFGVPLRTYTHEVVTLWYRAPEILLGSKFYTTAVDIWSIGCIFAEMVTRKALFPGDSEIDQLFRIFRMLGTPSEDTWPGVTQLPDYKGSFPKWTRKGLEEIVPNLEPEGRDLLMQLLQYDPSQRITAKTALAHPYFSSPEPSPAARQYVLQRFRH

[41] = target: Serine/threonine-protein kinase pim-1 (Homo sapiens) (UniProt P11309); details: Compound concentration 1000.0 nM
[42] = target: Cyclin-dependent kinase 18 (Homo sapiens) (UniProt Q07002); details: Compound concentration 1000.0 nM
Chain of Cyclin-dependent kinase 18 (Homo sapiens) (Q07002 whole entry): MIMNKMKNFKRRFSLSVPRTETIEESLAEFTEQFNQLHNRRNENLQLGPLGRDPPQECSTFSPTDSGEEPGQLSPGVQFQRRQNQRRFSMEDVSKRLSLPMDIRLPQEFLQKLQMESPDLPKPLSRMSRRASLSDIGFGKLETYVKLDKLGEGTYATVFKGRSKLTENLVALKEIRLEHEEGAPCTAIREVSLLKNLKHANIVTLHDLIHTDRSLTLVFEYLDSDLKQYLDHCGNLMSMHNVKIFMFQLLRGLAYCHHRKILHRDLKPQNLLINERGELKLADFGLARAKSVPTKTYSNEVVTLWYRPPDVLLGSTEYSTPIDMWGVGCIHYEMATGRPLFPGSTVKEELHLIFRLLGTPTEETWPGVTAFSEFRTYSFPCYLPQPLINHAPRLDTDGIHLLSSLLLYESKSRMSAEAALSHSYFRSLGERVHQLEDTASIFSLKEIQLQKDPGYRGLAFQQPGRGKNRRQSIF

CCC(=N\O)/C(C)=C/c1ccc(F)c(C)c1 [A-226]
inactive: residual activity [1] 100% | residual activity [2] 100% | residual activity [3] 98% | residual activity [4] 71% | residual activity [5] 78% | residual activity [6] 100% | residual activity [7] 79% | residual activity [8] 74% | residual activity [9] 100% | residual activity [10] 94% | inhibition [11] 11.1% | residual activity [12] 100% | residual activity [13] 92% | residual activity [14] 100% | residual activity [15] 72% | residual activity [16] 100% | residual activity [17] 100% | residual activity [18] 100% | residual activity [19] 100% | residual activity [20] 99% | residual activity [21] 100% | residual activity [22] 50% | residual activity [23] 99% | residual activity [24] 100% | residual activity [25] 69% | residual activity [26] 90% | residual activity [27] 89% | residual activity [28] 100% | residual activity [29] 99% | residual activity [30] 68% | residual activity [31] 100% | residual activity [32] 86% | residual activity [33] 73% | residual activity [34] 100% | residual activity [35] 100% | residual activity [36] 85% | residual activity [37] 95% | residual activity [38] 100% | residual activity [39] 100% | residual activity [40] 100% | residual activity [41] 70% | residual activity [42] 87%

CCC(=N\O)/C(C)=C/c1ccc(F)cc1 [A-079]
inactive: residual activity [1] 96% | residual activity [2] 100% | residual activity [3] 66% | residual activity [4] 88% | residual activity [5] 100% | residual activity [6] 74% | residual activity [7] 88% | residual activity [8] 91% | residual activity [9] 92% | residual activity [10] 69% | inhibition [11] -0.54% | residual activity [12] 63% | residual activity [13] 100% | residual activity [14] 81% | residual activity [15] 99% | residual activity [16] 93% | residual activity [17] 97% | residual activity [18] 100% | residual activity [19] 94% | residual activity [20] 83% | residual activity [21] 100% | residual activity [22] 70% | residual activity [23] 94% | residual activity [24] 90% | residual activity [25] 61% | residual activity [26] 77% | residual activity [27] 68% | residual activity [28] 97% | residual activity [29] 100% | residual activity [30] 60% | residual activity [31] 52% | residual activity [32] 67% | residual activity [33] 81% | residual activity [34] 78% | residual activity [35] 91% | residual activity [36] 97% | residual activity [37] 89% | residual activity [38] 100% | residual activity [39] 80% | residual activity [40] 84% | residual activity [41] 85% | residual activity [42] 89%
